Data: US12084420B2, “Indoline compounds for inhibiting KIF18A” (Volastra Therapeutics, Inc., priority 2021, dated 2024)

Target: hKIF18A (1-374) (Homo sapiens (Human), UniProt Q8NI77)
Assay: Inhibition of KIF18A microtubule-dependent ATPase activity (ADP-Glo)
Settings: not given

Sequence of hKIF18A (1-374) (Q8NI77 whole entry, looked up): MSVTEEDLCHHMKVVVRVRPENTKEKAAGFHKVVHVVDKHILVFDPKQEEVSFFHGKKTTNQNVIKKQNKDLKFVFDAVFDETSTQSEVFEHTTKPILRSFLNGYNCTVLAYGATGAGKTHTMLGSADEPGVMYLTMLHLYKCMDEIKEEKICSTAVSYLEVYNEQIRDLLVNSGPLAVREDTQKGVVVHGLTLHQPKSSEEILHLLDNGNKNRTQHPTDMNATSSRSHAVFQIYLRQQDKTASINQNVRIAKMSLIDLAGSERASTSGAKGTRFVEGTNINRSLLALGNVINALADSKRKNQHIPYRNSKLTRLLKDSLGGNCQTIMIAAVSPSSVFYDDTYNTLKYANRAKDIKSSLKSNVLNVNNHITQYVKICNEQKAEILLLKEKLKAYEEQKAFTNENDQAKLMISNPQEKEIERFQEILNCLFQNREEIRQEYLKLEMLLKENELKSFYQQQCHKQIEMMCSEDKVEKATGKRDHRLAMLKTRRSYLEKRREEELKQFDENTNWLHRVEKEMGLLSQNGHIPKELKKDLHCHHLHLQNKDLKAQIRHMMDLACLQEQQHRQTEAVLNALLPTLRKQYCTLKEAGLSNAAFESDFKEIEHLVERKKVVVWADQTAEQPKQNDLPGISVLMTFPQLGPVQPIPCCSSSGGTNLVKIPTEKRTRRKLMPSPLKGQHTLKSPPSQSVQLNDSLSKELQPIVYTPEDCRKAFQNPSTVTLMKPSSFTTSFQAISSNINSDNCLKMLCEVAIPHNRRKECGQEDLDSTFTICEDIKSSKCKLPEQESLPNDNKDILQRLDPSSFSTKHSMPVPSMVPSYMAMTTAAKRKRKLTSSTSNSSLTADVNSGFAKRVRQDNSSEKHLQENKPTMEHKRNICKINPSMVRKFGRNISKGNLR
Sequence of hKIF18A (1-374) (Q2XVP4 whole entry partner, looked up): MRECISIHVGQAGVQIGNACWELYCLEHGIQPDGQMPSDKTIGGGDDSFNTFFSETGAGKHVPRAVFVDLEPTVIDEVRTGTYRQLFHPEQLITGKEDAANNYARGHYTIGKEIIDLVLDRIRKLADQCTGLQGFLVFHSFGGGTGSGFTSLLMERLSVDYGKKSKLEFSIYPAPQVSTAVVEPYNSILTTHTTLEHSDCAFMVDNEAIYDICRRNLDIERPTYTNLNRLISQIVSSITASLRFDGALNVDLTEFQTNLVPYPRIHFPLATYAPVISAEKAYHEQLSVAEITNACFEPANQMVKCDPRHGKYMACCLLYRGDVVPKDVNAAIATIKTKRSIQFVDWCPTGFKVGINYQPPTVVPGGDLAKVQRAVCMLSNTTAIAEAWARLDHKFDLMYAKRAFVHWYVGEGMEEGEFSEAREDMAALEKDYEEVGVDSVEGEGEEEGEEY
Sequence of hKIF18A (1-374) (P02554 whole entry partner, looked up): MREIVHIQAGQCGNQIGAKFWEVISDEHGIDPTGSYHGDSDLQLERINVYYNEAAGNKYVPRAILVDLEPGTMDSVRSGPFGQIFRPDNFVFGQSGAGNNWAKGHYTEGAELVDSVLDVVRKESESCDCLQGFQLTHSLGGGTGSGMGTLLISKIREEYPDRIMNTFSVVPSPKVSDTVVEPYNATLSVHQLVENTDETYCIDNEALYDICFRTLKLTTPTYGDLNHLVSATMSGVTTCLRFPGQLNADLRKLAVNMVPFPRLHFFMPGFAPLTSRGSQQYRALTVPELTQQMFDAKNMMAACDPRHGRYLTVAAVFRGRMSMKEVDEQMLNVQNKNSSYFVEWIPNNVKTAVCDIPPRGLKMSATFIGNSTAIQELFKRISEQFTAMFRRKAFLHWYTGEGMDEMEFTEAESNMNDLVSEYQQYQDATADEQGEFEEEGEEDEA

| Structure (SMILES) | IC50 [µM] |
| --- | --- |
| C[C@H]1CCN(S(=O)(=O)c2cccc(C(=O)N3CC4(CCC5(CC5)CC4)c4cc(NS(C)(=O)=O)ccc43)c2)C1 [(S)-Compound 249, (S)-N-(1″-(3-((3-methylpyrrolidin-1-yl)sulfonyl)benzoyl)dispiro[cyclopropane-1,1′-cyclohexane-4′,3″-indolin]-5″- yl)methanesulfonamide] | 0.016 |
| C[C@@H]1CCN(S(=O)(=O)c2cccc(C(=O)N3CC4(CCC5(CC5)CC4)c4cc(NS(C)(=O)=O)ccc43)c2)C1 [(R)-Compound 249, (R)-N-(1″-(3-((3-methylpyrrolidin-1-yl)sulfonyl)benzoyl)dispiro[cyclopropane-1,1′-cyclohexane-4′,3″-indolin]-5″- yl)methanesulfonamide] | 0.011 |

Same assay, conditions: KIF18A microtubule-dependent ATPase activity, biochemical assay

| Structure (SMILES) | IC50 [µM] |
| --- | --- |
| CC(C)(CO)NS(=O)(=O)c1cccc(C(=O)N2CC3(CCC4(CC4)CC3)c3cc(NS(C)(=O)=O)ccc32)c1 [Compound 220, N-(1-hydroxy-2-methylpropan-2-yl)-3-(5″- (methylsulfonamido)dispiro[cyclopropane-1,1′-cyclohexane-4′,3″-indoline]-1″-carbonyl)benzenesulfonamide] | 0.025 |
| CS(=O)(=O)Nc1ccc2c(c1)C1(CCCCC1)CN2C(=O)c1cccc(S(=N)(=O)C2CCCC2)c1 (centres unmarked) [Compound 49, N-(1′-(3-(cyclopentanesulfonamidoyl)benzoyl)spiro[cyclohexane-1,3′-indolin]-5′-yl)methanesulfonamide] | 0.13 |
| O=C(c1ccc(C(O)C2CCCC2)o1)N1CC2(CCC3(CC3)CC2)c2cc(NS(=O)(=O)CCO)ccc21 (single isomer, unassigned) [Compound 368a] | 0.003 |
| CS(=O)(=O)Nc1ccc2c(c1)C1(CCCCC1)CN2C(=O)c1cccc(S(=O)(=O)C2CCCC2)c1 [Compound 50, N-(1′-(3-(cyclopentylsulfonyl)benzoyl)spiro [cyclohexane-1,3′-indolin]-5′-yl)methanesulfonamide] | 0.072 |
| CC(C)(C)[C@H](O)c1ccc(C(=O)N2CC3(CCC4(CC4)CC3)c3cc(NS(C)(=O)=O)ccc32)o1 (single isomer, unassigned) [Compound 373b] | 0.17 |
| CC1(NS(=O)(=O)c2cccc(C(=O)N3CC4(CCC5(CC5)CC4)c4cc(NS(C)(=O)=O)ccc43)c2)CCOC1 (centres unmarked) [Compound 178, 3-(5″- (methylsulfonamido)dispiro[cyclopropane-1,1′-cyclohexane-4′,3″-indoline]-1″-carbonyl)-N-(3-methyltetrahydrofuran-3-yl)benzenesulfonamide] | 0.017 |
| CS(=O)(=O)c1ccc2c(c1)C1(CCCCC1)CN2C(=O)c1cccc(S(=O)(=O)N2CCCCC2)c1 [Compound 250, (5′-(methylsulfonyl)spiro[cyclohexane-1,3′-indolin]-1′-yl)(3-(piperidin-1-ylsulfonyl)phenyl)methanone] | 0.67 |
| CC(C)(C)NS(=O)(=O)c1cc(C(=O)N2CC3(CCCCC3)c3cc(NS(C)(=O)=O)ccc32)ccc1F [Compound 96, N-(tert-butyl)-2-fluoro-5-(5′-(methylsulfonamido)spiro[cyclohexane-1,3′-indoline]-1′-carbonyl)benzenesulfonamide] | 0.1 |
| CCS(=O)(=O)Nc1ccc2c(c1)C1(CCC3(CC3)CC1)CN2C(=O)c1ccc(C(O)C2CCCC2)o1 (single isomer, unassigned) [Compound 367a] | 0.0039 |
| CC(C)(C)NS(=O)(=O)c1cc(C(=O)N2CC3(CCCCC3)c3cc(NS(=O)(=O)CCO)ccc32)cs1 [Compound 289, N-(tert-butyl)-4-(5′-((2-hydroxyethyl)sulfonamido)spiro [cyclohexane-1,3′-indoline]-1′-carbonyl)thiophene-2-sulfonamide] | 0.017 |
| COCC(C)NS(=O)(=O)c1cccc(C(=O)N2CC3(CCC4(CC4)CC3)c3cc(NS(C)(=O)=O)ccc32)c1 (centres unmarked) [Compound 200, N-(1-methoxypropan-2-yl)-3-(5″- (methylsulfonamido)dispiro[cyclopropane-1,1′-cyclohexane-4′,3″-indoline]-1″-carbonyl)benzenesulfonamide] | 0.072 |
| CC(C)(C)NS(=O)(=O)c1cccc(C(=O)N2CC3(CCC4(CC4)CC3)c3cc(C(O)C(F)(F)F)ccc32)c1 (single isomer, unassigned) [Compound 338b] | 0.083 |
| CC(C)(C)NS(=O)(=O)c1cccc(C(=O)N2C[C@]3(CC[C@@H](C(F)(F)F)CC3)c3cc(NS(C)(=O)=O)ccc32)c1 [Compound 361b] | 0.1 |
| CCS(=O)(=O)Nc1ccc2c(c1)C1(CCC(F)(F)CC1)CN2C(=O)c1cccc(S(=O)(=O)NC(C)(C)C)c1 [Compound 327, N-(tert-butyl)-3-(5′-(ethylsulfonamido)-4,4-difluorospiro[cyclohexane-1,3′-indoline]-1′-carbonyl)benzenesulfonamide] | 0.044 |
| CC1(O)CN(S(=O)(=O)c2cccc(C(=O)N3CC4(CCC5(CC5)CC4)c4cc(NS(C)(=O)=O)ccc43)c2)C1 [Compound 255, N-(1″-(3-((3-hydroxy-3-methylazetidin-1-yl)sulfonyl)benzoyl)dispiro[cyclopropane-1,1′-cyclohexane-4′,3″-indolin]-5″- yl)methanesulfonamide] | 0.063 |
| CN=S(=O)(c1cccc(C(=O)N2CC3(CCCCC3)c3cc(NS(C)(=O)=O)ccc32)c1)C1CCCC1 (centres unmarked) [Compound 67, N-(1′-(3-(N-methylcyclopentanesulfonimidoyl)benzoyl)spiro[cyclohexane-1,3′-indolin]-5′-yl)methanesulfonamide] | 0.46 |
| Cc1oc(C(=O)N2CC3(CCCCC3)c3cc(NS(C)(=O)=O)ccc32)cc1S(=O)(=O)NC(C)(C)C [Compound 57, N-(tert-butyl)-2-methyl-5-(5′-(methylsulfonamido)spiro[cyclohexane-1,3′-indoline]-1′-carbonyl)furan-3-sulfonamide] | 1.1 |
| CS(=O)(=O)Nc1ccc2c(c1)C1(CCC3(CC3)CC1)CN2C(=O)c1ccc(O)c(S(=O)(=O)N2CC(F)(F)C2)c1 [Compound 303, N-(1″-(3-((3,3-difluoroazetidin-1-yl)sulfonyl)-4-hydroxybenzoyl)dispiro[cyclopropane-1,1′-cyclohexane-4′,3″-indolin]-5″-yl)methanesulfonamide] | 0.0082 |
| CS(=O)(=O)Nc1ccc2c(c1)C1(CCC3(CC3)CC1)CN2C(=O)c1csc(S(=O)(=O)N2CC3(CCO3)C2)c1 [Compound 283, N-(1″-(5-((1-oxa-6-azaspiro[3.3]heptan-6-yl)sulfonyl)thiophene-3-carbonyl)dispiro[cyclopropane-1,1′-cyclohexane-4′,3″-indolin]-5″- yl)methanesulfonamide] | 0.018 |
| CC(C)(C)NS(=O)(=O)c1cccc(C(=O)N2CC3(CCC4(CC4)CC3)c3cc(C(O)C(F)(F)F)ccc32)c1 (centres unmarked) [Compound 338, N-(tert-butyl)-3-(5″-(2,2,2-trifluoro-1-hydroxyethyl)dispiro[cyclopropane-1,1′-cyclohexane-4′,3″-indoline]-1″-carbonyl)benzenesulfonamide] | 0.049 |

Results, then the compound that gave them:

| IC50 [µM] | Structure (SMILES) |
| --- | --- |
| 0.024 | CS(=O)(=O)Nc1ccc2c(c1)C1(CCC3(CC3)CC1)CN2C(=O)c1cccc(C(C#N)C2CCCC2)c1 (centres unmarked) [Compound 339, N-(1″-(3-(cyano(cyclopentyl)methyl)benzoyl)dispiro[cyclopropane-1,1′-cyclohexane-4′,3″-indolin]-5″- yl)methanesulfonamide] |
| 0.012 | CS(=O)(=O)Nc1ccc2c(c1)C1(CCC3(CC3)CC1)CN2C(=O)c1cccc(S(=O)(=O)NC2CC2)c1 [Compound 212, N-cyclopropyl-3-(5″- (methylsulfonamido)dispiro[cyclopropane-1,1′-cyclohexane-4′,3″-indoline]-1″-carbonyl)benzenesulfonamide] |
| 0.0093 | CS(=O)(=O)Nc1ccc2c(c1)C1(CCC3(CC3)CC1)CN2C(=O)c1cccc(S(=O)(=O)CC2CCC2)c1 [Compound 335, N-(1″-(3-((cyclobutylmethyl)sulfonyl)benzoyl)dispiro[cyclopropane-1,1′-cyclohexane-4′,3″-indolin]-5″-yl)methanesulfonamide] |
| 0.021 | CS(=O)(=O)Nc1ccc2c(c1)C1(CCC3(CC3)CC1)CN2C(=O)c1ccnc([C@@H](O)C2CCCC2)c1 (single isomer, unassigned) [Compound 316a] |
| 0.01 | CS(=O)(=O)Nc1ccc2c(c1)C1(CCC3(CC3)CC1)CN2C(=O)c1cccc(S(=O)(=O)NC2C=CCCC2)c1 (centres unmarked) [Compound 196, N-(cyclohex-2-en-1-yl)-3-(5″- (methylsulfonamido)dispiro[cyclopropane-1,1′-cyclohexane-4′,3″-indoline]-1″-carbonyl)benzenesulfonamide] |
| 0.033 | CS(=O)(=O)Nc1ccc2c(c1)C1(CCC3(CC3)CC1)CN2C(=O)c1cccc(C(F)(F)C2CCCC2)c1 [Compound 306, N-(1″-(3-(cyclopentyldifluoromethyl)benzoyl)dispiro[cyclopropane-1,1′-cyclohexane-4′,3″-indolin]-5″- yl)methanesulfonamide] |
| 0.05 | CC(C)S(=O)(=O)c1cccc(C(=O)N2CC3(CCC4(CC4)CC3)c3cc(NS(C)(=O)=O)ccc32)c1 [Compound 326, N-(1″-(3-(isopropylsulfonyl)benzoyl)dispiro [cyclopropane-1,1′-cyclohexane-4′,3″- indolin]-5″-yl)methanesulfonamide] |
| 0.0093 | CCS(=O)(=O)Nc1ccc2c(c1)C1(CCC3(CC3)CC1)CN2C(=O)c1cccc(S(=O)(=O)NC2CCC2)c1 [Compound 261, N-cyclobutyl-3-(5″- (ethylsulfonamido)dispiro[cyclopropane-1,1′-cyclohexane-4′,3″-indoline]-1″- carbonyl)benzenesulfonamide] |
| 0.0048 | CCS(=O)(=O)Nc1ccc2c(c1)C1(CCC3(CC3)CC1)CN2C(=O)c1ccc(C(O)C2CCCC2)o1 (single isomer, unassigned) [Compound 367b] |
| 0.08 | CS(=O)(=O)Nc1ccc2c(c1)C1(CCC3(CC3)CC1)CN2C(=O)c1cccc(S(=O)(=O)NC(CO)C2CC2)c1 (centres unmarked) [Compound 214, N-(1-cyclopropyl-2-hydroxyethyl)-3-(5″- (methylsulfonamido)dispiro[cyclopropane-1,1′-cyclohexane-4′,3″-indoline]-1″-carbonyl)benzenesulfonamide] |
